Each structure is given as a SMILES string.

Test [1] deals with OAW-28 (Ovarian Carcinoma). The experiment in a line: Bliss excess, mean over the matrix (fraction); higher = more synergy. The procedure, abridged:
(§1)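 After 24 hours at 37°C and 5% CO2 in 1536-well plates, cells in DMEM/F12 or RPMI plus 10% FBS received two-drug dose matrices for 72 hours. Viability came from CellTiter-Glo 2.0 luminescence and was scaled as inhibition, anchored at 0 by vehicle wells and at 1 by blank wells. Combination Emax is taken as the second-highest inhibition in the matrix, and Bliss excess as the observed combination effect less EA + EB − EA·EB, with EA and EB the single-agent effects.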

The subject of test [2] is NCI-H596 (Other Solid Carcinomas). The test is described as above. The procedure, abridged:
as §1

For the compound `CS(=O)(=O)CCNCc1ccc(-c2ccc3ncnc(Nc4ccc(OCc5cccc(F)c5)c(Cl)c4)c3c2)o1` [Lapatinib] + NC1(c2ccc(-c3nc4ccn5c(=O)[nH]nc5c4cc3-c3ccccc3)cc2)CCC1 [MK-2206] (first compound max 10 µM, 7x7, partner max 10 µM), the Bliss excess in test [1] is 0.0285; in test [2] it was -0.045.

These data come from the supplement of paper PMC11061612.
